{"source": "patent EP3638670B1", "about": "“SUBSTITUTED PYRROLOPYRIDINE-DERIVATIVES AS MAP4K1 MODULATORS FOR THE TREATMENT OF CANCER DISEASES” (Bayer Pharma Aktiengesellschaft, priority 2017, dated 2018)", "key": {"MAP4K1": {"target": "T1, MAP4K1 (Homo sapiens, UniProt Q92918)", "T1 construct": "A recombinant fusion protein of N-terminal GST and full-length human; made in house; host or cells: baculovirus-infected SF9 insect cells", "T1 sequence (Q92918 whole entry, the tested form may be a part)": "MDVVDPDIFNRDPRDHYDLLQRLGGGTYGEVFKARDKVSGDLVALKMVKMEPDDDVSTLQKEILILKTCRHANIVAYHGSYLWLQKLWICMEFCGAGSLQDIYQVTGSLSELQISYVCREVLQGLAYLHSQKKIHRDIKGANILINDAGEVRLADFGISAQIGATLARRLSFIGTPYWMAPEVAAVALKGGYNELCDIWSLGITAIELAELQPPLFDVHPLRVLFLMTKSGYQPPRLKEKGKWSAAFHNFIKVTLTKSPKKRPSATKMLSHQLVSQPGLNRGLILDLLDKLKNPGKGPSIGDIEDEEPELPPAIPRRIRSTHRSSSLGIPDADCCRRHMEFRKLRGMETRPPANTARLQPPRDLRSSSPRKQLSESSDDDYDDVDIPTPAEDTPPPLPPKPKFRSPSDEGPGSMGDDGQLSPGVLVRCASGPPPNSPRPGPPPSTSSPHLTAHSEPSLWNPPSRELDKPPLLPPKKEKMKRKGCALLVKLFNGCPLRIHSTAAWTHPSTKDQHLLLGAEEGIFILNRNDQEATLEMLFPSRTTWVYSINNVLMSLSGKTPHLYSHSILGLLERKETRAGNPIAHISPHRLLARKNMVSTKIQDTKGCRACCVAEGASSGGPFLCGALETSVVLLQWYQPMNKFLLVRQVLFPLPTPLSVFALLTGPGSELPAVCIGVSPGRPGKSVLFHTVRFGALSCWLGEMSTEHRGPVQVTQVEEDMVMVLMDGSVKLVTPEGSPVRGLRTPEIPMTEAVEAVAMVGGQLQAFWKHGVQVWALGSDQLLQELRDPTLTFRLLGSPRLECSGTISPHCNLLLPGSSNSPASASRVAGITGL", "test": "TR-FRET-based binding competition assay (Tracer 222, GST-fusion protein)", "conditions": "inhibition of binding of Tracer 222 (15 nM) to GST-fusion protein (1 nM), 30 min at 22°C", "description": "The ability of the compounds of the present invention to inhibit the binding of an Alexa647-labelled ATP-competitive kinase inhibitor to a Glutathione-S-transferase- (GST-) fusion protein was quantified employing the TR-FRET-based binding competition assay as described in the following paragraphs.\nA recombinant fusion protein of N-terminal GST and full-length human , expressed by baculovirus infected SF9 insect cells and purified by Glutathione Sepharose affinity chromatography, was used as GST- fusion protein. Tracer 222 from Invitrogen (catalogue no. PR9198A) was used as Alexa647-labelled ATP-competitive kinase inhibitor. For the assay 50 nl of a 100fold concentrated solution of the test compound in DMSO was pipetted into either a black low volume 384well microtiter plate or a black 1536well microtiter plate (both Greiner Bio-One, Frickenhausen, Germany), 3 µl solution of Tracer 222 (25 nM => final concentration in 5 µl assay volume is 15 nM) in aqueous assay buffer [25 mM Tris/HCI pH 7.5, 10 mM MgCl2, 5 mM β-glycerolphosphate, 2.5 mM dithiothreitol, 0.5 mM ethylene glycol-bis(2-aminoethylether)-N,N,N',N'-tetraacetic acid [EGTA], 0.5 mM sodium orthovanadate, 0.01 % (w/v) bovine serum albumin [BSA], 0.005% (w/v) Pluronic F-127 (Sigma)] were added. Then the binding competition was started by the addition of 2 µl of a solution of the GST- fusion protein (2.5 nM => final conc. in the 5 µl assay volume is 1 nM) and of Anti-GST-Tb (1.25 nM => final conc. in the 5 µl assay volume is 0.5 nM), a Lumi4®-Tb Cryptate-conjugated anti-GST-antibody from Cisbio Bioassays (France), in assay buffer.\nThe resulting mixture was incubated 30 min at 22°C to allow the formation of a complex between the Tracer 222, the fusion protein and Anti-GST-Tb. Subsequently the amount of this complex was evaluated by measurement of the resonance energy transfer from the Tb-cryptate to the Tracer 222. Therefore, the fluorescence emissions at 620 nm and 665 nm after excitation at 350 nm were measured in a TR-FRET reader, e.g. a Pherastar (BMG Labtechnologies, Offenburg, Germany) or a Viewlux (Perkin-Elmer). The ratio of the emissions at 665 nm and at 622 nm was taken as the measure for the amount of the complex. The data were normalised (assay reaction without inhibitor = 0 % inhibition, all other assay components but GST- fusion protein = 100 % inhibition). […] Table 1: Measured IC50 values of compounds regarding inhibition"}, "pSer376-SLP-76": {"tested_on": "pSer376-SLP-76", "test": "Phosphorylation assay in human cell line (pSer376-SLP-76, capillary electrophoresis)", "assay_type": "cell-based", "conditions": "0.5 h, Jurkat E6.1 cells overexpressing FLAG-tagged SLP-76, a-CD3 (OKT3) stimulation, 30 min at 37 °C; for activity at 10 µM: 10µM compound, read-out: % amount of pSer376-SLP-76 @ 10µM; for activity at 20 µM: 20µM compound, read-out: % amount of pSer376-SLP-76 @ 20µM", "method": "Phosphorylation assays were carried out in Jurkat E6.1 cells from American Type Culture Collection (ATCC) stably overexpressing human FLAG-tagged SLP-76 (proprietary). Cultured cells were kept in RPMI 1640 medium supplemented with 1% FCS at a cell density of 2x 10e6/mL 24h prior compound testing. Starved cells were simultaneously treated with 350 ng/mL a-CD3 antibody (clone OKT3. ebioscience #16-0037-85. plate-bound) and test compound for 30 min at 37 °C. Applied compounds were tested at either fixed concentration of 10 µmol/L and 20 µmol/L or in a 8 point dose response titration of increase compound concentration with 10 nmol/L. 50 nmol/L. 100 nmol/L. 500 nmol/L. 1 µmol/L. 5 µmol/L. 10 µmol/L and 20 µmol/L in triplicates. The cells were washed once in phosphate-buffered saline (pH 7.4). Cells were lysed using a lysis buffer containing 50 mmol/L Tris-CI (pH 7.5). 150 mM NaCl. 2 mM EDTA. 1% Triton-X 100. 0.5 % Na-DOC. 0.1% SDS. 1/10 complete mini protease inhibitor cocktail (Roche #11836170001) and 1/10 PhosSTOP phosphatase inhibitor cocktail (Roche #04906837001). A total of 1.25 µg cell lysate was analyzed by capillary electrophoresis using the Peggy Sue™ System (proteinsimple® San Jose. CA USA) with a 12-230kDa sizebased master kit with split buffer / a-rabbit-HRP #PS-MK18 / a-mouse-HRP #PS-MK19 according to manufacture's protocol. Probe antibodies used were a rabbit monoclonal antibody supernatant raised against human phospho-Ser376-SLP-76 peptide (proprietary) and for mormalization an a-alpha-Tubulin. mouse monoclonal antibody (Sigma #T9026). As control for maximal effect (max control. which represent the maximally possible inhibition of pSer376-SLP-76 by a test compound) cells with no a-CD3 (clone OKT3. ebioscience #16-0037-85. plate-bound) and no test compound treatment were used. Cells with a-CD3 treatment only were used as negative control (min control. which represent the minimally possible inhibition of pSer376-SLP-76 by a test compound)\nAUC values of each respective test sample were normalized using the AUC of housekeeping gene alpha-Tubulin and AUC of pSer376-SLP-76 of the min control. The percentage of the amount of pSer-SLP-76 in the treatment samples was calculated using the max control and min control values of the respective Peggy Sue™ run. Table 3: Measured % amount of pSer376-SLP-76 of compound"}}}
{"compound": "O=C(NCCN1CCOCC1)Nc1ccc(Oc2ccnc3[nH]cc(C(F)(F)F)c23)c(C(F)(F)F)c1", "note": "[Example 1, 1-[2-(morpholin-4-yl)ethyl]-3-[3-(trifluoromethyl)-4-{[3-(trifluoromethyl)-1H-pyrrolo[2,3-b]pyridin-4-yl]oxy}phenyl]urea]", "values": [{"measurement": "IC50", "setting": "MAP4K1", "result": 69.4, "unit": "nM"}, {"measurement": "activity at 10 µM", "setting": "pSer376-SLP-76", "result": 25.2, "unit": "%"}, {"measurement": "activity at 20 µM", "setting": "pSer376-SLP-76", "result": 5.5, "unit": "%"}]}
{"compound": "O=C(NCCCN1CCOCC1)Nc1ccc(Oc2ccnc3[nH]cc(C(F)(F)F)c23)c(C(F)(F)F)c1", "note": "[Example 2, 1-[3-(morpholin-4-yl)propyl]-3-[3-(trifluoromethyl)-4-{[3-(trifluoromethyl)-1H-pyrrolo[2,3-b]pyridin-4-yl]oxy}phenyl]urea]", "values": [{"measurement": "IC50", "setting": "MAP4K1", "result": 56.2, "unit": "nM"}, {"measurement": "activity at 10 µM", "setting": "pSer376-SLP-76", "result": 25.1, "unit": "%"}, {"measurement": "activity at 20 µM", "setting": "pSer376-SLP-76", "result": 6.5, "unit": "%"}]}
{"compound": "NC(=O)Nc1ccc(Oc2ccnc3[nH]cc(C(F)(F)F)c23)c(C(F)(F)F)c1", "note": "[Example 3, 1-[3-(trifluoromethyl)-4-{[3-(trifluoromethyl)-1H-pyrrolo[2,3-b]pyridin-4-yl]oxy}phenyl]urea]", "values": [{"measurement": "IC50", "setting": "MAP4K1", "result": 56.2, "unit": "nM"}, {"measurement": "activity at 10 µM", "setting": "pSer376-SLP-76", "result": 21, "unit": "%"}, {"measurement": "activity at 20 µM", "setting": "pSer376-SLP-76", "result": 2.6, "unit": "%"}]}
{"compound": "O=C(NCCCN1CCOCC1)Nc1cc(F)c(Oc2ccnc3[nH]cc(C(F)(F)F)c23)c(C(F)(F)F)c1", "note": "[Example 4, 1-[3-fluoro-5-(trifluoromethyl)-4-{[3-(trifluoromethyl)-1H-pyrrolo[2,3-b]pyridin-4-yl]oxy}phenyl]-3-[3-(morpholin-4-yl)propyl]urea]", "values": [{"measurement": "IC50", "setting": "MAP4K1", "result": 65, "unit": "nM"}, {"measurement": "activity at 10 µM", "setting": "pSer376-SLP-76", "result": 17, "unit": "%"}, {"measurement": "activity at 20 µM", "setting": "pSer376-SLP-76", "result": "< 1", "unit": "%"}]}
{"compound": "O=C(NCCN1CCOCC1)Nc1cc(F)c(Oc2ccnc3[nH]cc(C(F)(F)F)c23)c(C(F)(F)F)c1", "note": "[Example 5, 1-[3-fluoro-5-(trifluoromethyl)-4-{[3-(trifluoromethyl)-1H-pyrrolo[2,3-b]pyridin-4-yl]oxy}phenyl]-3-[2-(morpholin-4-yl)ethyl]urea]", "values": [{"measurement": "IC50", "setting": "MAP4K1", "result": 64.6, "unit": "nM"}, {"measurement": "activity at 10 µM", "setting": "pSer376-SLP-76", "result": 27.1, "unit": "%"}, {"measurement": "activity at 20 µM", "setting": "pSer376-SLP-76", "result": "< 1", "unit": "%"}]}
{"compound": "O=C(NCCCN1CCOCC1)Nc1ccc(Oc2ccnc3[nH]cc(Cl)c23)c(C(F)(F)F)c1", "note": "[Example 6, 1-{4-[(3-chloro-1H-pyrrolo[2,3-b]pyridin-4-yl)oxy]-3-(trifluoromethyl)phenyl}-3-[3-(morpholin-4-yl)propyl]urea]", "values": [{"measurement": "IC50", "setting": "MAP4K1", "result": 158, "unit": "nM"}, {"measurement": "activity at 10 µM", "setting": "pSer376-SLP-76", "result": 69.9, "unit": "%"}, {"measurement": "activity at 20 µM", "setting": "pSer376-SLP-76", "result": 29.5, "unit": "%"}]}
{"compound": "O=C(NCCN1CCOCC1)Nc1ccc(Oc2ccnc3[nH]cc(Cl)c23)c(C(F)(F)F)c1", "note": "[Example 7, 1-{4-[(3-chloro-1H-pyrrolo[2,3-b]pyridin-4-yl)oxy]-3-(trifluoromethyl)phenyl}-3-[2-(morpholin-4-yl)ethyl]urea]", "values": [{"measurement": "IC50", "setting": "MAP4K1", "result": 124, "unit": "nM"}, {"measurement": "activity at 10 µM", "setting": "pSer376-SLP-76", "result": 5.1, "unit": "%"}, {"measurement": "activity at 20 µM", "setting": "pSer376-SLP-76", "result": "< 1", "unit": "%"}]}
{"compound": "NC(=O)Nc1ccc(Oc2ccnc3[nH]cc(Cl)c23)c(C(F)(F)F)c1", "note": "[Example 8, 1-{4-[(3-chloro-1H-pyrrolo[2,3-b]pyridin-4-yl)oxy]-3-(trifluoromethyl)phenyl}urea]", "values": [{"measurement": "IC50", "setting": "MAP4K1", "result": 188, "unit": "nM"}, {"measurement": "activity at 10 µM", "setting": "pSer376-SLP-76", "result": 92.7, "unit": "%"}, {"measurement": "activity at 20 µM", "setting": "pSer376-SLP-76", "result": 73.6, "unit": "%"}]}
{"compound": "O=C(Nc1ccc(Oc2ccnc3[nH]cc(Cl)c23)c(C(F)(F)F)c1)Nc1cccnn1", "note": "[Example 9, 1-{4-[(3-chloro-1H-pyrrolo[2,3-b]pyridin-4-yl)oxy]-3-(trifluoromethyl)phenyl}-3-pyridazin-3-ylurea]", "values": [{"measurement": "IC50", "setting": "MAP4K1", "result": 1260, "unit": "nM"}]}
{"compound": "Cc1ncc(NC(=O)Nc2ccc(Oc3ccnc4[nH]cc(Cl)c34)c(C(F)(F)F)c2)cn1", "note": "[Example 10, 1-{4-[(3-chloro-1H-pyrrolo[2,3-b]pyridin-4-yl)oxy]-3-(trifluoromethyl)phenyl}-3-(2-methylpyrimidin-5-yl)urea]", "values": [{"measurement": "IC50", "setting": "MAP4K1", "result": 171, "unit": "nM"}, {"measurement": "activity at 10 µM", "setting": "pSer376-SLP-76", "result": 15.9, "unit": "%"}, {"measurement": "activity at 20 µM", "setting": "pSer376-SLP-76", "result": "< 1", "unit": "%"}]}
{"compound": "COc1cc(NC(=O)NCCCN2CCOCC2)ccc1Oc1ccnc2[nH]cc(C(F)(F)F)c12", "note": "[Example 11, 1-(3-methoxy-4-{[3-(trifluoromethyl)-1H-pyrrolo[2,3-b]pyridin-4-yl]oxy}phenyl)-3-[3-(morpholin-4-yl)propyl]urea]", "values": [{"measurement": "IC50", "setting": "MAP4K1", "result": 315, "unit": "nM"}, {"measurement": "activity at 10 µM", "setting": "pSer376-SLP-76", "result": 68.1, "unit": "%"}, {"measurement": "activity at 20 µM", "setting": "pSer376-SLP-76", "result": 53.8, "unit": "%"}]}
{"compound": "O=C(NCCCN1CCOCC1)Nc1ccc(Oc2ccnc3[nH]cc(C(F)(F)F)c23)c(OC(F)(F)F)c1", "note": "[Example 12, 1-[3-(morpholin-4-yl)propyl]-3-[3-(trifluoromethoxy)-4-{[3-(trifluoromethyl)-1H-pyrrolo[2,3-b]pyridin-4-yl]oxy}phenyl]urea]", "values": [{"measurement": "IC50", "setting": "MAP4K1", "result": 469, "unit": "nM"}, {"measurement": "activity at 10 µM", "setting": "pSer376-SLP-76", "result": 61.8, "unit": "%"}, {"measurement": "activity at 20 µM", "setting": "pSer376-SLP-76", "result": 23.9, "unit": "%"}]}
{"compound": "O=C(NCCN1CCOCC1)Nc1ccc(Oc2ccnc3[nH]cc(C(F)(F)F)c23)c(OC(F)(F)F)c1", "note": "[Example 13, 1-[2-(morpholin-4-yl)ethyl]-3-[3-(trifluoromethoxy)-4-{[3-(trifluoromethyl)-1H-pyrrolo[2,3-b]pyridin-4-yl]oxy}phenyl]urea]", "values": [{"measurement": "IC50", "setting": "MAP4K1", "result": 439, "unit": "nM"}]}
